Results as given in ChEMBL document CHEMBL3797052 (Eur J Med Chem, 2016).

System: T47D
Test: Antiproliferative activity against human T47D cells assessed as cell growth at 10^-8 M after 48 hrs by sulforhodamine B assay
Assay type: functional
Conditions: read-out: Activity
Molecule CNC(=O)c1cc(Oc2ccc3nc(NC(=O)Nc4ccc(Cl)c(Cl)c4)sc3c2)ccn1 has a growth at 0.01 µM of 102%.

System: CCRF-CEM
Test: Antiproliferative activity against human CCRF-CEM cells assessed as cell growth at 10^-7 M after 48 hrs by sulforhodamine B assay
Assay type: functional
Conditions: read-out: Activity
With CNC(=O)c1cc(Oc2ccc3nc(NC(=O)Nc4ccc(Cl)c(Cl)c4)sc3c2)ccn1 the growth at 0.1 µM was 107%.

System: SR
Test: Antiproliferative activity against human SR cells assessed as cell growth at 10^-7 M after 48 hrs by sulforhodamine B assay
Assay type: functional
Conditions: read-out: Activity
CNC(=O)c1cc(Oc2ccc3nc(NC(=O)Nc4ccc(Cl)c(Cl)c4)sc3c2)ccn1 gave a growth at 0.1 µM of 105%.

System: NCI-H522
Test: Antiproliferative activity against human NCI-H522 cells assessed as cell growth at 10^-7 M after 48 hrs by sulforhodamine B assay
Assay type: functional
Conditions: NCI-H522, 48 h, read-out: Activity
CNC(=O)c1cc(Oc2ccc3nc(NC(=O)Nc4ccc(Cl)c(Cl)c4)sc3c2)ccn1 showed a growth at 0.1 µM of 100%.

System: not listed separately
Test: Antiproliferative activity against human COLO205 cells assessed as cell growth at 10^-7 M after 48 hrs by sulforhodamine B assay
Assay type: functional
Conditions: COLO 205, 48 h, read-out: Activity
Work on CNC(=O)c1cc(Oc2ccc3nc(NC(=O)Nc4ccc(Cl)c(Cl)c4)sc3c2)ccn1 yielded a growth at 0.1 µM of 105%.

System: not listed separately
Test: Antiproliferative activity against human HCT116 cells assessed as cell growth at 10^-7 M after 48 hrs by sulforhodamine B assay
Assay type: functional
Conditions: HCT-116, 48 h, read-out: Activity
CNC(=O)c1cc(Oc2ccc3nc(NC(=O)Nc4ccc(Cl)c(Cl)c4)sc3c2)ccn1 showed a growth at 0.1 µM of 97%.

System: not listed separately
Test: Antiproliferative activity against human SF268 cells assessed as cell growth at 10^-7 M after 48 hrs by sulforhodamine B assay
Assay type: functional
Conditions: SF-268, 48 h, read-out: Activity
CNC(=O)c1cc(Oc2ccc3nc(NC(=O)Nc4ccc(Cl)c(Cl)c4)sc3c2)ccn1 gave a growth at 0.1 µM of 99%.

System: not listed separately
Test: Antiproliferative activity against human SNB19 cells assessed as cell growth at 10^-7 M after 48 hrs by sulforhodamine B assay
Assay type: functional
Conditions: SNB-19, 48 h, read-out: Activity
CNC(=O)c1cc(Oc2ccc3nc(NC(=O)Nc4ccc(Cl)c(Cl)c4)sc3c2)ccn1 gave a growth at 0.1 µM of 110%.

System: SK-MEL-2
Test: Antiproliferative activity against human SK-MEL-2 cells assessed as growth inhibition after 48 hrs by sulforhodamine B assay
Assay type: functional
Conditions: SK-MEL-2, 48 h
CNC(=O)c1cc(Oc2ccc3nc(NC(=O)Nc4ccc(Cl)c(Cl)c4)sc3c2)ccn1 showed a GI50 of 2.56 µM and a TGI of 5.97 µM.

Same assay, conditions: SK-MEL-2, 48 h, read-out: LC50 (the source's name)
Molecule CNC(=O)c1cc(Oc2ccc3nc(NC(=O)Nc4ccc(Cl)c(Cl)c4)sc3c2)ccn1 has a CC50 of over 100 µM.

System: not listed separately
Test: Antiproliferative activity against human LOXIMVI cells assessed as growth inhibition after 48 hrs by sulforhodamine B assay
Assay type: functional
Conditions: LOX IMVI
CNC(=O)c1cc(Oc2ccc3nc(NC(=O)Nc4ccc(Cl)c(Cl)c4)sc3c2)ccn1 gave a GI50 of 1.82 µM and a TGI of 3.52 µM.

Same assay, conditions: LOX IMVI, read-out: LC50 (the source's name)
CNC(=O)c1cc(Oc2ccc3nc(NC(=O)Nc4ccc(Cl)c(Cl)c4)sc3c2)ccn1 gave a CC50 of 6.82 µM.

System: not listed separately
Test: Antiproliferative activity against human UO31 cells assessed as cell growth at 10^-7 M after 48 hrs by sulforhodamine B assay
Assay type: functional
Conditions: UO-31, 48 h, read-out: Activity
For CNC(=O)c1cc(Oc2ccc3nc(NC(=O)Nc4ccc(Cl)c(Cl)c4)sc3c2)ccn1, the growth at 0.1 µM was 100%.

System: MDA-MB-231
Test: Antiproliferative activity against human MDA-MB-231 cells assessed as cell growth at 10^-7 M after 48 hrs by sulforhodamine B assay
Assay type: functional
Conditions: MDA-MB-231, 48 h, read-out: Activity
In the case of CNC(=O)c1cc(Oc2ccc3nc(NC(=O)Nc4ccc(Cl)c(Cl)c4)sc3c2)ccn1, the growth at 0.1 µM is reported as 97%.

System: not listed separately
Test: Antiproliferative activity against human SF268 cells assessed as growth inhibition after 48 hrs by sulforhodamine B assay
Assay type: functional
Conditions: SF-268, 48 h
CNC(=O)c1cc(Oc2ccc3nc(NC(=O)Nc4ccc(Cl)c(Cl)c4)sc3c2)ccn1 gave a GI50 of 1.98 µM, an LC50 (concentration killing 50% of cells) of 8.97 µM and a TGI of 4.21 µM.

System: EKVX
Test: Antiproliferative activity against human EKVX cells assessed as growth inhibition after 48 hrs by sulforhodamine B assay
Assay type: functional
Conditions: not given
CNC(=O)c1cc(Oc2ccc3nc(NC(=O)Nc4ccc(Cl)c(Cl)c4)sc3c2)ccn1 gave a GI50 of 3.3 µM and a TGI of over 100 µM.

Same assay, conditions: read-out: LC50 (the source's name)
Molecule CNC(=O)c1cc(Oc2ccc3nc(NC(=O)Nc4ccc(Cl)c(Cl)c4)sc3c2)ccn1 has a CC50 of over 100 µM.

System: T47D
Test: Antiproliferative activity against human T47D cells assessed as growth inhibition after 48 hrs by sulforhodamine B assay
Assay type: functional
Conditions: not given
Molecule CNC(=O)c1cc(Oc2ccc3nc(NC(=O)Nc4ccc(Cl)c(Cl)c4)sc3c2)ccn1 has a GI50 of 2.65 µM and a TGI of 6.36 µM.

Same assay, conditions: read-out: LC50 (the source's name)
In the case of CNC(=O)c1cc(Oc2ccc3nc(NC(=O)Nc4ccc(Cl)c(Cl)c4)sc3c2)ccn1, the CC50 is reported as over 100 µM.

System: A549
Test: Antiproliferative activity against human A549/ATCC cells assessed as cell growth at 10^-8 M after 48 hrs by sulforhodamine B assay
Assay type: functional
Conditions: A549, 48 h, read-out: Activity
Work on CNC(=O)c1cc(Oc2ccc3nc(NC(=O)Nc4ccc(Cl)c(Cl)c4)sc3c2)ccn1 yielded a growth at 0.01 µM of 98%.

System: not listed separately
Test: Antiproliferative activity against human HOP62 cells assessed as cell growth at 10^-6 M after 48 hrs by sulforhodamine B assay
Assay type: functional
Conditions: HOP-62, 48 h, read-out: Activity
Work on CNC(=O)c1cc(Oc2ccc3nc(NC(=O)Nc4ccc(Cl)c(Cl)c4)sc3c2)ccn1 yielded a growth at 1 µM of 119%.

System: U-251
Test: Antiproliferative activity against human U251 cells assessed as cell growth at 10^-6 M after 48 hrs by sulforhodamine B assay
Assay type: functional
Conditions: U-251, 48 h, read-out: Activity
For CNC(=O)c1cc(Oc2ccc3nc(NC(=O)Nc4ccc(Cl)c(Cl)c4)sc3c2)ccn1, the growth at 1 µM was 98%.

System: not listed separately
Test: Antiproliferative activity against human LOXIMVI cells assessed as cell growth at 10^-6 M after 48 hrs by sulforhodamine B assay
Assay type: functional
Conditions: LOX IMVI, read-out: Activity
Work on CNC(=O)c1cc(Oc2ccc3nc(NC(=O)Nc4ccc(Cl)c(Cl)c4)sc3c2)ccn1 yielded a growth at 1 µM of 95%.

System: A549
Test: Antiproliferative activity against human A549/ATCC cells assessed as cell growth at 10^-4 M after 48 hrs by sulforhodamine B assay
Assay type: functional
Conditions: A549, 48 h, read-out: Activity
Work on CNC(=O)c1cc(Oc2ccc3nc(NC(=O)Nc4ccc(Cl)c(Cl)c4)sc3c2)ccn1 yielded a growth at 100 µM of -41%.

System: HT-29
Test: Antiproliferative activity against human HT-29 cells assessed as cell growth at 10^-4 M after 48 hrs by sulforhodamine B assay
Assay type: functional
Conditions: HT-29, 48 h, read-out: Activity
For CNC(=O)c1cc(Oc2ccc3nc(NC(=O)Nc4ccc(Cl)c(Cl)c4)sc3c2)ccn1, the growth at 100 µM was -49%.

System: SK-MEL-28
Test: Antiproliferative activity against human SK-MEL-28 cells assessed as cell growth at 10^-8 M after 48 hrs by sulforhodamine B assay
Assay type: functional
Conditions: SK-MEL-28, 48 h, read-out: Activity
Work on CNC(=O)c1cc(Oc2ccc3nc(NC(=O)Nc4ccc(Cl)c(Cl)c4)sc3c2)ccn1 yielded a growth at 0.01 µM of 95%.

System: not listed separately
Test: Antiproliferative activity against human UACC257 cells assessed as cell growth at 10^-8 M after 48 hrs by sulforhodamine B assay
Assay type: functional
Conditions: UACC-257, 48 h, read-out: Activity
Work on CNC(=O)c1cc(Oc2ccc3nc(NC(=O)Nc4ccc(Cl)c(Cl)c4)sc3c2)ccn1 yielded a growth at 0.01 µM of 92%.

System: not listed separately
Test: Antiproliferative activity against human OVCAR4 cells assessed as cell growth at 10^-8 M after 48 hrs by sulforhodamine B assay
Assay type: functional
Conditions: OVCAR-4, 48 h, read-out: Activity
Molecule CNC(=O)c1cc(Oc2ccc3nc(NC(=O)Nc4ccc(Cl)c(Cl)c4)sc3c2)ccn1 has a growth at 0.01 µM of 93%.

System: not listed separately
Test: Antiproliferative activity against human OVCAR8 cells assessed as cell growth at 10^-8 M after 48 hrs by sulforhodamine B assay
Assay type: functional
Conditions: OVCAR-8, 48 h, read-out: Activity
CNC(=O)c1cc(Oc2ccc3nc(NC(=O)Nc4ccc(Cl)c(Cl)c4)sc3c2)ccn1 showed a growth at 0.01 µM of 103%.

System: not listed separately
Test: Antiproliferative activity against human NCI-ADR-RES cells assessed as cell growth at 10^-8 M after 48 hrs by sulforhodamine B assay
Assay type: functional
Conditions: read-out: Activity
CNC(=O)c1cc(Oc2ccc3nc(NC(=O)Nc4ccc(Cl)c(Cl)c4)sc3c2)ccn1 gave a growth at 0.01 µM of 97%.

System: not listed separately
Test: Antiproliferative activity against human Caki1 cells assessed as cell growth at 10^-8 M after 48 hrs by sulforhodamine B assay
Assay type: functional
Conditions: CAKI-1, 48 h, read-out: Activity
CNC(=O)c1cc(Oc2ccc3nc(NC(=O)Nc4ccc(Cl)c(Cl)c4)sc3c2)ccn1 gave a growth at 0.01 µM of 92%.

System: MDA-MB-435
Test: Antiproliferative activity against human MDA-MB-435 cells assessed as cell growth at 10^-6 M after 48 hrs by sulforhodamine B assay
Assay type: functional
Conditions: MDA-MB-435, 48 h, read-out: Activity
Molecule CNC(=O)c1cc(Oc2ccc3nc(NC(=O)Nc4ccc(Cl)c(Cl)c4)sc3c2)ccn1 has a growth at 1 µM of 93%.

System: not listed separately
Test: Antiproliferative activity against human UACC257 cells assessed as cell growth at 10^-6 M after 48 hrs by sulforhodamine B assay
Assay type: functional
Conditions: UACC-257, 48 h, read-out: Activity
CNC(=O)c1cc(Oc2ccc3nc(NC(=O)Nc4ccc(Cl)c(Cl)c4)sc3c2)ccn1 showed a growth at 1 µM of 89%.

System: not listed separately
Test: Antiproliferative activity against human DU145 cells assessed as cell growth at 10^-6 M after 48 hrs by sulforhodamine B assay
Assay type: functional
Conditions: DU-145, 48 h, read-out: Activity
CNC(=O)c1cc(Oc2ccc3nc(NC(=O)Nc4ccc(Cl)c(Cl)c4)sc3c2)ccn1 showed a growth at 1 µM of 97%.

System: M14
Test: Antiproliferative activity against human M14 cells assessed as cell growth at 10^-4 M after 48 hrs by sulforhodamine B assay
Assay type: functional
Conditions: M14, 48 h, read-out: Activity
For CNC(=O)c1cc(Oc2ccc3nc(NC(=O)Nc4ccc(Cl)c(Cl)c4)sc3c2)ccn1, the growth at 100 µM was -46%.

System: SK-MEL-2
Test: Antiproliferative activity against human SK-MEL-2 cells assessed as cell growth at 10^-4 M after 48 hrs by sulforhodamine B assay
Assay type: functional
Conditions: SK-MEL-2, 48 h, read-out: Activity
Work on CNC(=O)c1cc(Oc2ccc3nc(NC(=O)Nc4ccc(Cl)c(Cl)c4)sc3c2)ccn1 yielded a growth at 100 µM of -48%.

System: not listed separately
Test: Antiproliferative activity against human SKOV3 cells assessed as cell growth at 10^-4 M after 48 hrs by sulforhodamine B assay
Assay type: functional
Conditions: SK-OV-3, 48 h, read-out: Activity
Molecule CNC(=O)c1cc(Oc2ccc3nc(NC(=O)Nc4ccc(Cl)c(Cl)c4)sc3c2)ccn1 has a growth at 100 µM of -69%.

System: not listed separately
Test: Antiproliferative activity against human Caki1 cells assessed as cell growth at 10^-4 M after 48 hrs by sulforhodamine B assay
Assay type: functional
Conditions: CAKI-1, 48 h, read-out: Activity
With CNC(=O)c1cc(Oc2ccc3nc(NC(=O)Nc4ccc(Cl)c(Cl)c4)sc3c2)ccn1 the growth at 100 µM was -17%.

System: not listed separately
Test: Antiproliferative activity against human RXF393 cells assessed as cell growth at 10^-4 M after 48 hrs by sulforhodamine B assay
Assay type: functional
Conditions: RXF 393, 48 h, read-out: Activity
CNC(=O)c1cc(Oc2ccc3nc(NC(=O)Nc4ccc(Cl)c(Cl)c4)sc3c2)ccn1 showed a growth at 100 µM of -85%.

System: not listed separately
Test: Antiproliferative activity against human UO31 cells assessed as cell growth at 10^-4 M after 48 hrs by sulforhodamine B assay
Assay type: functional
Conditions: UO-31, 48 h, read-out: Activity
Work on CNC(=O)c1cc(Oc2ccc3nc(NC(=O)Nc4ccc(Cl)c(Cl)c4)sc3c2)ccn1 yielded a growth at 100 µM of -72%.

System: not listed separately
Test: Antiproliferative activity against human DU145 cells assessed as cell growth at 10^-4 M after 48 hrs by sulforhodamine B assay
Assay type: functional
Conditions: DU-145, 48 h, read-out: Activity
In the case of CNC(=O)c1cc(Oc2ccc3nc(NC(=O)Nc4ccc(Cl)c(Cl)c4)sc3c2)ccn1, the growth at 100 µM is reported as -34%.
